In patent publication US7507727B2, “Substituted quinobenzoxazine analogs and methods of using thereof” (Cylene Pharmaceuticals, Inc., priority 2003, dated 2009):
“Also recorded” adds a separate entry of the source.

Assays:
[1] = Subacute study of intravenously administered CX-3543 in rats (safety and tolerance); type: in vivo
Experimental: (§1) This study determines the safety and tolerance of CX-3543 at three dose levels administered intravenously once daily to rats for five consecutive days. Safety parameters will be monitored through observation, clinical pathology, and microscopic histopathology assessments. Selected animals will also undergo blood sample collection for pharmacokinetic/toxicokinetic evaluation.
The study was conducted using three (3) test and one (1) control article groups. The high and low test article groups and the control group consisted of 28 animals each and were used to assess tolerance. The medium test article group consisted of 64 animals of which 28 animals were used to assess tolerance and 36 animals were used to determine the level of test article in the blood at various time points after the first and fifth doses in the PK/TK portion of the study. The control article was the solution (5% dextrose in water; D5W) used to dilute the test article prior to administration and was administered at the same volume as the high dose test article group. The test article dosage levels for this study were 24, 7.6, and 2.4 mg/kg. Test and control articles were administered by intravenous (IV) injection into a tail vein over one minute on five consecutive days.
Blood samples for test article blood level analysis were taken as follows. […]

PC-3 xenograft = assay: PC-3 prostate cancer xenograft model; type: in vivo, mice; conditions: 5, 10 and 15 mg/kg i.p. q.o.d., FIG. 9
Experimental: (§2) CX-3543 was tested against a number of cancer xenograft models to determine the in vivo efficacy. HCT-116 and PC-3 tumor-bearing nu/nu or MiaPaCa tumor-bearing SCID mice were administered reference and testing compounds on schedules indicated in figure legends. Tumor measurements were taken with calipers every other day or twice a week starting from the first day of dosing and body weights were measured at the same time points. Tumor volumes were calculated from the standard formula, W^2×L/2. c-MYC mRNA expression was measured with QPCR from all tumor samples following the final dose. 18S ribosomal RNA was used as a housekeeper and also quantified with QPCR.

c-MYC mRNA = c-MYC mRNA expression in tumor samples by QPCR; type: in vivo, mice; conditions: HCT-116
Experimental: as §2

[2] = Subacute study of intravenously administered CX-3543 in dogs (safety and tolerance); type: in vivo
Experimental: as §1, with “beagle dogs” for “rats”, “were” for “will be”, “animals” for “animals will”, “underwent” for “undergo”, “evaluation. All animals were also assessed with ECG evaluations to detect heart rhythm and/or conduction abnormalities.” for “evaluation.”
The study was conducted using three (3) test article and one (1) control article group. The control article was the solution (5% dextrose in water) used to dilute the test article prior to administration and was administered at the same volume as the high dose. The test article dosage levels for this study were approximately 12, 3.8, and 1.2 mg/kg. Test and control articles were administered once by intravenous (IV) infusion over approximately a one hour period on five consecutive days. Blood samples for test article blood level analysis was taken as follows (i.e., pk/tk sampling): approximately 1 mL of blood was taken from three male and three female dogs in the low dose group at approximately 20 minutes and 40 minutes from the start of the infusion, and then at the end of infusion (Time 0) and at 5, 10, 15, and 30 minutes, and 1, 2, 4, 8, 12, and 24 hours from the end of the infusion after the first and fifth doses. Also, prior to and immediately after Dose 1 and after Dose 5 for all animals, and for recovery animals prior to necropsy, approximately 5-10 second ECG tracings in a lead II configuration were obtained. Animals were terminated one (1) or 15 days after the last dose. […]
Clinical Pathology: After overnight fasting and prior to the first dose (baseline; all animals) and then prior to each necropsy, blood samples are taken for hematology and clinical chemistry. For hematology assays, blood collected at baseline and prior to necropsy (fasted) are analyzed for erythrocyte count, hematocrit, MCH, leukocyte count, differential WC, MCHC, hemoglobin, MCV, platelet count, PT, and APTT. […]

MiaPaCa xenograft = assay: MiaPaCa pancreatic cancer xenograft model; type: in vivo, mice; conditions: 5, 10 and 15 mg/kg i.p. q.o.d., FIG. 10
Experimental: as §2

[3] = molecular target: c-Myc template DNA (c-myc quadruplex); assay: Quadruplex binding / stop assay (Taq polymerase arrest, capillary electrophoresis); conditions: read-out: IC50 value in the stop assay; arrest product/full-length product ratio 1:1; FIG. 2
Source text: A high throughput polymerase arrest assay has been developed. The assay comprises contacting a template nucleic acid, often DNA, with a primer, which also is often DNA; contacting the primer/template complex with a compound described herein (also referred to as a “test compound”); contacting the primer/template complex with a polymerase; and separating reaction products. The assay often includes the step of denaturing the primer/template complex mixture and then renaturing the complex, which often is carried out before a test molecule is added to the system. Multiple assays often are carried out using varying concentrations of a test compound, such that an IC50 value can be obtained, for example. The reaction products often include extended primers of different lengths.
Thus, the reaction mixture often includes at least two reaction products when a test compound interacts with a quadruplex structure in the template, one having a completely extended primer and one having an incompletely extended primer, and these two reaction products are separated. The products may be separated using any convenient separation method, such as mass spectrometry and in one embodiment, capillary electrophoresis.
In an embodiment, a primer oligonucleotide covalently linked to a fluorescent label is contacted with template DNA. The resulting complex is contacted with a test molecule and then contacted with a polymerase capable of extending the primer. The reaction products then are separated and detected by capillary electrophoresis. A longer primer sequence was used for practicing this embodiment as compared to embodiments where the primer includes no covalently-linked fluorophore or where capillary electrophoresis is not utilized for separation. Deoxynucleotides are added at any stage of the assay before the separation, often when the primer is contacted with the template DNA. The template DNA/primer complex often is denatured (e.g., by increasing the temperature of the system) and then renatured (e.g., by cooling the system) before a test compound is added).
The mixture was denatured at 95° C. for 5 minutes and, after cooling down to room temperature, was incubated at 37° C. for 15 minutes.
After cooling down to room temperature, 1 mM KCl and the test compound (various concentrations) were added and the mixture incubated for 15 minutes at room temperature. The primer extension was performed by adding 10 mM KCl and Taq DNA Polymerase (2.5 U/reaction, Promega) and incubating at 70° C. for 30 minutes. The reaction was stopped by adding 1 μl of the reaction mixture to 10 μl Hi-Di Formamide mixed and 0.25 μl LIZ120 size standard. Hi-Di Formamide and LIZ120 size standard were purchased from Applied Biosystems.
The partially extended quadruplex arrest product was between 61 or 62 bases long and the full-length extended product was 99 bases long. The products were separated and analyzed using capillary electrophoresis. Capillary electrophoresis was performed using an ABI PRISM 3100-Avant Genetic Analyzer.
Stop Assays. […] A fluorescently labeled primer DNA is then annealed to the 3′ end of the template DNA. A DNA polymerase such as Taq polymerase is then introduced to synthesize a complementary strand of DNA by extending from the fluorescently labeled primer. When the progress of the Taq polymerase is unhindered, it synthesizes a full-length copy of the template.
These products are visualized by capillary electrophoresis.

Question: Which results are given for `CN1CCCC1CCNC(=O)c1cn2c3c(c(N4CCC(c5cnccn5)C4)c(F)cc3c1=O)Oc1cc3ccccc3cc1-2` (stereo not shown) [CX-3543]?
Answer: tolerance ([1]; five consecutive daily IV doses, mid- and low-dose levels (7.6 and 2.4 mg/kg)): toxicologically well tolerated; mortality ([1]; high dose animals (24 mg/kg), five day course): approximately 5%; tumor growth inhibition (PC-3 xenograft): inhibits tumor growth; also recorded: significant tumor growth inhibition; lowering of c-Myc mRNA expression relative to control (18s rRNA) in tumor tissue (c-MYC mRNA; 20 mg/kg group): 85%; c-Myc mRNA expression relative to control (18s rRNA) in tumor tissue (c-MYC mRNA; 10, 15 and 20 mg/kg): dose-dependent lowering; mortality ([2]; dog, in vivo): no mortality; tolerance ([2]; dogs, five consecutive daily doses at 12, 3.8 or 1.2 mg/kg, IV one-hour infusion, except injection-site inflammation and necrosis): toxicologically well tolerated; ECG monitoring ([2]; dogs, pre and post doses 1 and 5): No abnormalities were detected; tumor growth inhibition (MiaPaCa xenograft): inhibits tumor growth; also recorded: significant tumor growth inhibition; IC50 [3]: 1 µM
